According to US20060025474A1, “Bisphenyl compounds useful as vitamin D3 receptor agonists” (priority 2004, published 2006):

What was measured:
[1] = test system: ECAC2 mRNA in Caco-2 cells; assay type: cell-based
In short: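 Caco-2 cells grown 4 days, then exposed 1 day at 37° C to compounds in medium with 10% FBS, refreshed twice daily. ECAC2 mRNA by one-step TaqMan RT-PCR, normalized to GAPDH. EC50 from Emax model, expressed as ratio to LG190178 EC50.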

[2] = test system: ovariectomized (OVX) rats; assay: Bone mineral density in the ovariectomized (OVX) rats (1); assay type: in vivo, Sprague-Dawley rats; conditions: orally five times a week for 4 weeks; for Spinal BMD: L2-L4
Experimental: Bone Mineral Density in the Ovariectomized (OVX) Rats (1)
The compounds of the present invention were prepared as exemplified above, dissolved in a vehicle (medium chain triglyceride, MCT) and diluted to a given concentration. The stock solutions were protected from light and stored at 4° C.
(§1) Eight-month-old female Sprague-Dawley (Crl:CD(SD)) rats were purchased from Charles River Japan Inc. (Kanagawa, Japan) and acclimated under standard laboratory conditions at 24±2° C. and 50-60% humidity. The rats were allowed free access to tap water and commercial standard rodent chow CE-2 (Clea Japan Inc., Japan).
Sham-operated (n=8) and the ovariectomized (OVX) rats were used. The OVX rats were divided into each group (n=8) one day after the surgery. In the sham and OVX control groups, rats received the vehicle (MCT) p.o. at a dose of 1 ml/kg body weight (BW) five times a week. Each compound was given orally five times a week for 4 weeks. These animal studies were carried out in accordance with Chugai Pharmaceutical's ethical guidelines for animal care, and the experimental protocols were approved by the animal care committee of the institution.
(§2) During the 24 hours from the last administration, urine was collected with metabolic cage, and blood was drawn from the abdominal aorta under ether anesthesia. Blood and urine samples were centrifuged to obtain the supernatant, which were stored at −20° C. until assay. The lumbar vertebrae and femur were removed. The lumbar vertebra and the right femur were stored in 70% ethanol at 4° C. for the measurement of bone mineral density (BMD).
(§3) Serum and Urine Biochemistry
(§4) Serum calcium (Ca) and inorganic phosphorus (Pi) concentrations were measured with an autoanalyzer (Hitachi 7170, Tokyo, Japan). The serum osteocalcin concentration was measured with Osteocalcin rat ELISA system (Amersham Pharmacia Biotech, Tokyo, Japan). Urinary Ca, Pi, and creatinine (Cre) were measured with an autoanalyzer. Urinary deoxypyridinoline (D-Pyr) was measured using a Metra DPD EIA kit (Quidel Co., USA), and the data were corrected for urinary Cre concentrations.
(§5) Measurement of Bone Mineral Density
The second through fourth lumbar vertebaral (L2-L4) BMD (mg/cm^2) and femoral BMD were measured by dual-energy X-ray absorptiometry (DCS-600-EX, Aloka, Japan).

[3] = test system: ovariectomized (OVX) rats; assay: Bone mineral density in the ovariectomized (OVX) rats (2); assay type: in vivo, Sprague-Dawley rats; conditions: orally seven times a week for 4 weeks; for Spinal BMD: L2-L5
Experimental: Bone Mineral Density in the Ovariectomized (OVX) Rats (2)
Alfacalcidol was synthesized in Chugai Pharmaceutical Co., Ltd., Japan, dissolved in a vehicle (medium chain triglyceride, MCT) and diluted to a given concentration. The stock solutions were protected from light and stored at 4° C.
as §1, with “23±2°” for “24±2°”, “40-70%” for “50-60%”, “CRF-1 (Oriental Yeast Co. Ltd.,” for “CE-2 (Clea Japan Inc.,”
Sham-operated (n=8) and the ovariectomized (OVX) rats were used. The OVX rats were divided into each group (n=8) one day after the surgery. In the sham and OVX control groups, rats received the vehicle (MCT) p.o. at a dose of 1 ml/kg body weight (BW) every day. Each compound was given orally seven times a week for 4 weeks.
as §2, with “the jugular vein” for “the abdominal aorta”, “and femora” for “and femur”, “stored i” for “stored in”
as §3
as §4, with “(Smersham” for “(Amersham”
as §5
The second through fifth lumbar vertebaral (L2-L5) BMD (mg/cm^2) and femoral BMD were measured by dual-energy X-ray absorptiometry (DCS-600-EX, Aloka, Japan).

Compound: CCC(CC)(c1ccc(CCC(O)C(C)(C)C)c(C)c1)c1ccc(OC[C@H](O)CCC(=O)[O-])c(C)c1.[Na+] (stereo partly drawn) [Example 141, 5-(4-{1-Ethyl-1-[4-(3-hydroxy4,4-dimethyl-pentyl)-3-methyl-phenyl]-propyl}-2-methyl-phenoxy)4(R)-hydroxy-pentanoic acid sodium salt]
- ECaC-2 mRNA induction activity in Caco-2 cells [1]: 31%
- serum Ca ([2]; 7.5 microgram/kg/week): 10.1 mg/dL
- Spinal BMD ([2]; 7.5 microgram/kg/week): 184.4 mg/cm2

Compound: CCC(CC)(c1ccc(CCC(O)C(C)(C)C)c(C)c1)c1ccc(OC[C@H](O)CCC(=O)[O-])c(C)c1.[Na+] (stereo partly drawn) [Example 140, 5-(4-{1-Ethyl-1-[4-(3-hydroxy-4,4-dimethyl-pentyl)-3-methyl-phenyl]-propyl}-2-methyl-phenoxy)-4(R)-hydroxy-pentanoic acid sodium salt]
- ECaC-2 mRNA induction activity in Caco-2 cells [1]: 53%
- serum Ca ([2]; 0.75 microgram/kg/week): 10.0 mg/dL
- Spinal BMD ([2]; 0.75 microgram/kg/week): 186.6 mg/cm2

Compound: C=C1/C(=C\C=C2/CCC[C@]3(C)[C@@H]([C@H](C)CCCC(C)C)CC[C@@H]23)C[C@@H](O)C[C@@H]1O [Alfacalcidol]
- serum Ca ([3]; 0.125 microgram/kg/week): 10.2 mg/dL
- Spinal BMD ([3]; 0.125 microgram/kg/week): 182.1 mg/cm2
- serum Ca ([3]; 0.25 microgram/kg/week): 10.6 mg/dL
- Spinal BMD ([3]; 0.25 microgram/kg/week): 180.9 mg/cm2
- serum Ca ([3]; 0.5 microgram/kg/week): 10.7 mg/dL
- Spinal BMD ([3]; 0.5 microgram/kg/week): 185.1 mg/cm2
